In patent US6403652B1, “Method and composition” (Colgate-Palmolive Company, priority 2000, dated 2002):
Converted amounts (≈) assume the structure as drawn. Read-outs that look alike come from different tables or passages of the source. One block for each compound: values may come before it.

Assays:
Assay type in all cases: cell-based
Staphylococcus Aureus = assay: MIC by Broth Dilution Method against Staphylococcus Aureus; conditions: 37° C., visible growth
Method: Antimicrobial activity of several compounds was measured by determining the minimum inhibitory concentration (MIC). MIC is defined as the lowest concentration of an antimicrobial agent that will inhibit the growth of a microorganism and is usually expressed as ppm (μg/mL). MIC was determined by the Broth Dilution Method. To determine MIC a series of culture tubes was prepared, each tube containing the growth medium (Broth) with a decreasing concentration of the antimicrobial agent. The tubes were then inoculated with the test organism and incubated at 37° C. After incubation, tubes were visually examined for growth as indicated by turbidity. The lowest concentration that prevented visible growth is the MIC.

[1] = system: Staphylococcus Aureus isolate SA100 (resistant to methicillin only); assay: MIC in multiwell plate broth dilution, isolate SA100
Method: (§1) 1. The following Staphylococcus Aureus isolates were tested:
(§2) 2. 2-t-butyl-5-(4-t-butylphenyl)-phenol (DTBBP) was dissolved in ethanol to a concentration of 1000 μg/mL. Higher concentrations could not be tested due to the formation of precipitate in the broth when higher concentrations were attempted.
(§3) 3. 100 μl of the 32 μg/ml solution added to column 12 of the multiwell plates, 50 μl M—H broth to each of the other columns. 50 μl removed from 12 to 11 for 1:1 dilution, continued to column 2. 50 μl removed from column 2 and discarded. Column 1 contained no drug. To control for the amount of ethanol added to each well, additional wells were set up as described above without DTBBP but with the same amount of ethanol as the test wells.
(§4) 4. 50 μl bacteria added to each well going from column 1 to column 12. All isolates run in duplicate with and without DTBBP.
(§5) 5. Addition of 50 μl bacteria to 50 μl drug dilutes both 1:1 for a final bacterial density of 5×10^5/ml and drug concentrations of:
(§6) 6. Incubated overnight at 37° C.

[2] = MIC in multiwell plate broth dilution, isolate SA22; conditions: Staphylococcus aureus
Method: as §1, §2, §3, §4, §5, §6

[3] = system: Staphylococcus Aureus isolate SA76 (resistant to methicillin, azithromycin, clarithromycin, erythromycin, ciprofloxacin); assay: MIC in multiwell plate broth dilution, isolate SA76
Method: as §1, §2, §3, §4, §5, §6

[4] = system: Staphylococcus Aureus isolate SA15 (susceptible); assay: MIC in multiwell plate broth dilution, isolate SA15
Method: as §1, §2, §3, §4, §5, §6

[5] = system: Staphylococcus Aureus isolate SA124 (susceptible); assay: MIC in multiwell plate broth dilution, isolate SA124
Method: as §1, §2, §3, §4, §5, §6

[6] = system: Staphylococcus Aureus isolate SA6 (susceptible to all drugs); assay: MIC in multiwell plate broth dilution, isolate SA6
Method: as §1, §2, §3, §4, §5, §6

MIC (Staphylococcus Aureus): < 10 µg/mL
SMILES: CC(C)(C)c1ccc(C2CCC(C(C)(C)C)CC2)cc1O (stereo not shown) [2-t-butyl-5-(4-t-butylcyclohexyl)-phenol]

SMILES: CCCCCCCCc1ccc(O)c(C(C)(C)C)c1 [2-t-butyl-4-n-octylphenol]
MIC (Staphylococcus Aureus): < 10 µg/mL

MIC (Staphylococcus Aureus): < 10 µg/mL
SMILES: CC(C)(C)c1cc(C2CCCCC2)ccc1O [2-t-butyl-4-cyclohexylphenol]

MIC ([1]; isolate SA100, 24 hr, read-out: DTBBP MIC (24 hr)): 4 µg/mL (≈ 14.2 µM)
MIC ([1]; isolate SA100, 48 hr, read-out: DTBBP MIC (48 hr)): 4 µg/mL (≈ 14.2 µM)
MIC ([2]; isolate SA22, 24 hr, read-out: DTBBP MIC (24 hr)): 2 µg/mL (≈ 7.08 µM)
MIC ([2]; isolate SA22, 48 hr, read-out: DTBBP MIC (48 hr)): 2 µg/mL (≈ 7.08 µM)
MIC ([3]; isolate SA76, 24 hr, read-out: DTBBP MIC (24 hr)): 2 µg/mL (≈ 7.08 µM)
MIC ([3]; isolate SA76, 48 hr, read-out: DTBBP MIC (48 hr)): 4 µg/mL (≈ 14.2 µM)
MIC ([4]; isolate SA15, 24 hr, read-out: DTBBP MIC (24 hr)): 2 µg/mL (≈ 7.08 µM)
MIC ([4]; isolate SA15, 48 hr, read-out: DTBBP MIC (48 hr)): 4 µg/mL (≈ 14.2 µM)
MIC (Staphylococcus Aureus): < 1 µg/mL
MIC ([5]; isolate SA124, 24 hr, read-out: DTBBP MIC (24 hr)): 2 µg/mL (≈ 7.08 µM)
MIC ([5]; isolate SA124, 48 hr, read-out: DTBBP MIC (48 hr)): 4 µg/mL (≈ 14.2 µM)
MIC ([6]; isolate SA6, 24 hr, read-out: DTBBP MIC (24 hr)): 2 µg/mL (≈ 7.08 µM)
MIC ([6]; isolate SA6, 48 hr, read-out: DTBBP MIC (48 hr)): 4 µg/mL (≈ 14.2 µM)
SMILES: CC(C)(C)c1ccc(-c2ccc(C(C)(C)C)c(O)c2)cc1 [DTBBP, 2-t-butyl-5-(4-t-butylphenyl)-phenol]
